In paper PMC5384750 (PLoS ONE, 2017):

Key:
[1] = target: T1, insulin-degrading enzyme (IDE) (Homo sapiens, UniProt P14735); assay: Inhibition of Aβ-FITC degradation in S10 extract; assay type: biochemical; details: 10 ng FITC-labeled Aβ 1–40, 5 μg S10, 45 min, 37°C; fluorescence; four independent experiments
T1 construct: endogenous in cells; host or cells: HeLa cells (cytosolic S10 extract)
Experimental: […] Reactions were stopped by addition of sample buffer and incubation at 95°C for 5 min. Remaining p6 was detected by Western blotting using an anti-p6 rabbit antiserum. Alternatively, 10 ng of BODIPY FL-labeled sp6 (sp6BY) were used as substrate and detected directly in the polyacrylamide gel by fluorescence scanning. In some experiments the amount of p6 was densitometrically quantified with the software AIDA (Raytest). For the in vitro degradation of amyloid-β 10 ng of Aβ-FITC (abcam) were used analogously to sp6BY. For the in vitro degradation of viral p6, VLPs were pelleted and lysed in IDE enzyme buffer (150 mM NaCl, 50 mM Tris pH 7.4, 0.5% (v/v) Triton X-100). The p6 content was estimated by Western blotting using a dilution series of sp6 with known concentrations. Equivalents of 15 ng were used for digestion experiments and subsequently detected by Western blotting. Experiments carried out with recombinant IDE (Calbiochem) were performed in IDE enzyme buffer. Recombinant FITC-labeled insulin was purchased from Sigma.
Supplementary file pone.0174254.s003.tif: S3 Fig p6 competes with the in vitro degradation of Aβ. […] Aβ-FITC was detected by measurement of fluorescence excitation. The band marked with * represents Aβ-oligomers and has been described earlier. (B) Band intensities were quantified for four independent experiments and values represent the arithmetic mean ± SD. […]

recombinant IDE (rIDE) = target: T2, recombinant IDE (rIDE) (Rattus norvegicus, UniProt P35559); assay: In vitro degradation by recombinant IDE (extent, kinetics, cleavage sites); assay type: biochemical; details: 10 ng rIDE, 30 min, 37°C, IDE enzyme buffer; 10 ng sp6BY (fluorescence) or VLP/virion lysate (Western blot)
T2 construct: purchased Calbiochem
T2 sequence (P35559 whole entry): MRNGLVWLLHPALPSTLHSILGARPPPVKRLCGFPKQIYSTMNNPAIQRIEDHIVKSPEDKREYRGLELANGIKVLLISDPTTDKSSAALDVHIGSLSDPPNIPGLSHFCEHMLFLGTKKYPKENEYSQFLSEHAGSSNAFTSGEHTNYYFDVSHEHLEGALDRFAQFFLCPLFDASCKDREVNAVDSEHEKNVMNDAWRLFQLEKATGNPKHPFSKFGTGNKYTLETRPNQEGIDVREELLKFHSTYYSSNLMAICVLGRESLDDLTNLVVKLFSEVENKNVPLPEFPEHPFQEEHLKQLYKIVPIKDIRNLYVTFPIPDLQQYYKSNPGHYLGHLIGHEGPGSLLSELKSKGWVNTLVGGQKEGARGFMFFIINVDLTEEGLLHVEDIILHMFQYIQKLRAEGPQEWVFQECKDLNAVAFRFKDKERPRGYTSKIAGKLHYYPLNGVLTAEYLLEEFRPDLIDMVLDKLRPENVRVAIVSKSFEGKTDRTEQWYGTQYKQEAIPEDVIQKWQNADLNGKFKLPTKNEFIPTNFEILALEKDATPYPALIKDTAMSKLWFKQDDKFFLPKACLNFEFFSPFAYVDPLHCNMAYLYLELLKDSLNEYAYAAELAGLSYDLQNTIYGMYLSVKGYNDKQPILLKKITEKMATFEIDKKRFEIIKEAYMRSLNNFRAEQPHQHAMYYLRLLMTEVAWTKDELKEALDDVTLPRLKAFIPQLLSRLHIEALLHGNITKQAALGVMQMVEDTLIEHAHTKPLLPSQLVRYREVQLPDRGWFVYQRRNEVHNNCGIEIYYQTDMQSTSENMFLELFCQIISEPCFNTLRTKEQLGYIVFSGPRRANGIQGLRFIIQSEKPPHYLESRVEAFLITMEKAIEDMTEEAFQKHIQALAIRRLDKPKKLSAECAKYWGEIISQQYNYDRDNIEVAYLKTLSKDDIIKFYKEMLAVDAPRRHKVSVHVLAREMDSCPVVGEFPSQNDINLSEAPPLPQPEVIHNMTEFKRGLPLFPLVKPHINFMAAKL
Experimental: (A) 10 ng of sp6BY or insulin-FITC were incubated with indicated amounts of rIDE for 30 min at 37°C. Remaining amounts of sp6BY and insulin-FITC were detected by measurement of fluorescence excitation. (B) Results of four independently performed experiments. Values represent the arithmetic mean ± SD. (C) Increasing concentrations of sp6BY were incubated with rIDE for 10 min at 37°C. The velocities were calculated from the degradation of sp6BY and normalized for the amount of rIDE. Data points represent values from three independent experiments in a double-reciprocal Lineweaver-Burk plot.
Fig 8 Generation of stable p6 mutants. […] Reactions were stopped by adjusting the samples to 0.3% (w/v) […] and subsequently analyzed by mass spectrometry. Arrows above the primary sequence represent the detected cleavage sites, and initial and secondary cleavage sites are indicated as big or small arrows, respectively. […] (C) 10 ng of sp6BY were incubated with 250 μg/ml sp6 wt, 2xPTAPPA, 3xPTAPPA or only buffer and 5 μg S10 for 30 min at 37°C. sp6BY was detected by fluorescence emission and quantified. […]
Typically 5 μg S10 were incubated with inhibitor or buffer and 20–100 ng sp6 at 37°C for 30 min. […] Remaining p6 was detected by Western blotting using an anti-p6 rabbit antiserum. […] In some experiments the amount of p6 was densitometrically quantified with the software AIDA (Raytest). […]

[2] = target: T1, insulin-degrading enzyme (IDE); assay: Inhibition of / competition with sp6 or sp6BY degradation in S10 extract; assay type: biochemical; details: 10 ng sp6BY, 5 μg S10 extract, 30 min, 37°C; fluorescence; mean of at least three independent experiments
Experimental: (§1) For generation of S10, confluent dishes with HeLa cells were extensively washed and subsequently lysed with a modified S10 buffer (250 mM sucrose, 80 mM KCl, 10 mM Tris pH 7.6, 0.1% (v/v) Triton X-100 [91]). Debris and nuclei were removed by centrifugation at 10.000 × g for 10 min. Protein content was determined by BCA-Assay (Pierce) and aliquots stored at -80°C.
Reactions were stopped by addition of sample buffer and incubation at 95°C for 5 min. Remaining p6 was detected by Western blotting using an anti-p6 rabbit antiserum. Alternatively, 10 ng of BODIPY FL-labeled sp6 (sp6BY) were used as substrate and detected directly in the polyacrylamide gel by fluorescence scanning. In some experiments the amount of p6 was densitometrically quantified with the software AIDA (Raytest). For the in vitro degradation of amyloid-β 10 ng of Aβ-FITC (abcam) were used analogously to sp6BY. For the in vitro degradation of viral p6, VLPs were pelleted and lysed in IDE enzyme buffer (150 mM NaCl, 50 mM Tris pH 7.4, 0.5% (v/v) Triton X-100). The p6 content was estimated by Western blotting using a dilution series of sp6 with known concentrations. Equivalents of 15 ng were used for digestion experiments and subsequently detected by Western blotting. Experiments carried out with recombinant IDE (Calbiochem) were performed in IDE enzyme buffer.
Bestatin, Chymostatin, E-64, Leupeptin, Pepstatin, Phosphoramidon, Pefabloc SC, EDTA, Aprotinin, Antipain were purchased from Roche as part of a protease inhibitors set and used at the following concentrations: 74 μM Antipain; 130 μM Bestatin; 100 μM Chymostatin; 28 μM E-64; 1 μM Leupeptin; 1 μM Pepstatin; 600 nM Phosphoramidon; 4 mM Pefabloc SC; 1.3 mM EDTA; […]. […] (Phoenix Pharmaceuticals and Tocris), TPEN (Calbiochem), and NEM (Roche) were purchased from companies indicated.

[3] = In vitro degradation in cytosolic S10 HeLa cell extract; assay type: in vitro ADME; details: human, cytosolic S10 HeLa cell extract; 100 ng sp6, 5 μg S10 extract from HeLa cells, 37°C; Western blot (anti-p6), quantified; estimated from exponential decay; mean of 4 independent experiments
Experimental: as §1
(§2) Typically 5 μg S10 were incubated with inhibitor or buffer and 20–100 ng sp6 at 37°C for 30 min. Reactions were stopped by addition of sample buffer and incubation at 95°C for 5 min. Remaining p6 was detected by Western blotting using an anti-p6 rabbit antiserum. Alternatively, 10 ng of BODIPY FL-labeled sp6 (sp6BY) were used as substrate and detected directly in the polyacrylamide gel by fluorescence scanning. In some experiments the amount of p6 was densitometrically quantified with the software AIDA (Raytest). For the in vitro degradation of amyloid-β 10 ng of Aβ-FITC (abcam) were used analogously to sp6BY. For the in vitro degradation of viral p6, VLPs were pelleted and lysed in IDE enzyme buffer (150 mM NaCl, 50 mM Tris pH 7.4, 0.5% (v/v) Triton X-100). The p6 content was estimated by Western blotting using a dilution series of sp6 with known concentrations. Equivalents of 15 ng were used for digestion experiments and subsequently detected by Western blotting. Experiments carried out with recombinant IDE (Calbiochem) were performed in IDE enzyme buffer. Recombinant FITC-labeled insulin was purchased from Sigma.

[4] = tested on: IDE (S10 extract or rIDE); assay type: in vitro ADME; details: 20 ng sp6 or 30 ng vp6 with 5 μg S10 extract or 2 ng rIDE, up to 60 min; Western blot densitometry; at least 3 independent experiments per setting; value depends on the experimental setting
Experimental: Fig 9 Multiplication of PTAPPA-motifs stabilizes p6. 20 ng of sp6 or 30 ng of vp6 were incubated either with 5 μg S10 extract (A/B/C) or 2 ng of rIDE (D) for up to 60 min. Degradation efficiency was quantified via densitometric analyses of Western blots. Values represent the arithmetic mean ± SD of at least 3 independent experiments for each setting.
as §2, with “Experiments carried out with recombinant IDE (Calbiochem) were performed in IDE enzyme buffer. Recombinant FITC-labeled insulin was purchased from Sigma.” left out

T1 sequence (P14735 whole entry): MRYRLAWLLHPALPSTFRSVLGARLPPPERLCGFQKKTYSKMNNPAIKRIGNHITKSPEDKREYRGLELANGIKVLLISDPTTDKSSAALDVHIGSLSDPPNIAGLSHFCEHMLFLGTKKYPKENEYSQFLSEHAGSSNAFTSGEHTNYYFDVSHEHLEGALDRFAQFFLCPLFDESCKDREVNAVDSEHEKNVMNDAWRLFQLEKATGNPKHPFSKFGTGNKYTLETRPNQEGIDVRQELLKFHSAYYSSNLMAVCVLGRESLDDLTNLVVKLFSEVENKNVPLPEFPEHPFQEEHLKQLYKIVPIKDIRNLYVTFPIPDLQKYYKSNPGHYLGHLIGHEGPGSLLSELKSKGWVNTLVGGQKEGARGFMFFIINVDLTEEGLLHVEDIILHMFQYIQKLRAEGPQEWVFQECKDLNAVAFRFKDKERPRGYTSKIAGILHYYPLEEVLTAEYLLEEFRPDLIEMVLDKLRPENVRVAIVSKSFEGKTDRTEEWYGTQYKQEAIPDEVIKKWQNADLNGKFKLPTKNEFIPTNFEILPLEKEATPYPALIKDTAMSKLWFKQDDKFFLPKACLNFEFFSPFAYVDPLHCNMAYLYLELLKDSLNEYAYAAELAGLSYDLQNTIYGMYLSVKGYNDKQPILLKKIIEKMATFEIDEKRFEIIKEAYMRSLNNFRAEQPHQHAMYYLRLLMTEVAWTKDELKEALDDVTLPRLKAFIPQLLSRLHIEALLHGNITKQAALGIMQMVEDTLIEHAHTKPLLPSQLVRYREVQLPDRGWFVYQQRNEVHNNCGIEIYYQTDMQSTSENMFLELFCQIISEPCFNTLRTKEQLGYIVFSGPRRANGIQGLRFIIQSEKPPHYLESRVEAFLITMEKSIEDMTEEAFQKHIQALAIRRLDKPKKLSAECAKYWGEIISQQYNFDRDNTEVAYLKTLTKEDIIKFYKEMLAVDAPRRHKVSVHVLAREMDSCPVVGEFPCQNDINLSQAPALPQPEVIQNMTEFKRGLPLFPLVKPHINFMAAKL

Structure (SMILES)	IC50 [1] [µM]	degradation by recombinant IDE (recombinant IDE (rIDE))	IC50 [2] [µM]	half-life [3] [min]	half-life in in vitro degradation assays [4]
CC[C@H](C)[C@H](NC(=O)[C@@H]1CCCN1C(=O)[C@H](CCC(=O)O)NC(=O)[C@H](CCC(N)=O)NC(=O)[C@H](CCCCN)NC(=O)[C@H](CCC(N)=O)NC(=O)[C@H](CO)NC(=O)[C@@H]1CCCN1C(=O)[C@@H](NC(=O)[C@@H](NC(=O)[C@@H](NC(=O)[C@H](CCC(=O)O)NC(=O)[C@H](CCC(=O)O)NC(=O)CNC(=O)[C@H](Cc1ccccc1)NC(=O)[C@H](CCCNC(=N)N)NC(=O)[C@H](Cc1ccccc1)NC(=O)[C@H](CO)NC(=O)[C@H](CCC(=O)O)NC(=O)[C@H](CCC(=O)O)NC(=O)[C@@H]1CCCN1C(=O)[C@@H]1CCCN1C(=O)[C@H](C)NC(=O)[C@@H](NC(=O)[C@@H]1CCCN1C(=O)[C@H](CCC(=O)O)NC(=O)[C@@H]1CCCN1C(=O)[C@H](CCCNC(=N)N)NC(=O)[C@H](CO)NC(=O)[C@H](CCC(N)=O)NC(=O)[C@@H](N)CC(C)C)[C@@H](C)O)[C@@H](C)O)[C@@H](C)O)[C@@H](C)O)C(=O)N[C@@H](CC(=O)O)C(=O)N[C@@H](CCCCN)C(=O)N[C@@H](CCC(=O)O)C(=O)N[C@@H](CC(C)C)C(=O)N[C@@H](Cc1ccc(O)cc1)C(=O)N1CCC[C@H]1C(=O)N[C@@H](CC(C)C)C(=O)N[C@@H](C)C(=O)N[C@@H](CO)C(=O)N[C@@H](CC(C)C)C(=O)N[C@@H](CCCNC(=N)N)C(=O)N[C@@H](CO)C(=O)N[C@@H](CC(C)C)C(=O)N[C@@H](Cc1ccccc1)C(=O)NCC(=O)N[C@@H](CO)C(=O)N[C@@H](CC(=O)O)C(=O)N1CCC[C@H]1C(=O)N[C@@H](CO)C(=O)N[C@@H](CO)C(=O)N[C@@H](CCC(N)=O)C(=O)O [sp6]	13.8	degraded by recombinant IDE	~30.1	~10	–
CC[C@H](C)[C@H](NC(=O)[C@@H]1CCCN1C(=O)[C@H](CCC(=O)O)NC(=O)[C@H](CCC(N)=O)NC(=O)[C@H](CCCCN)NC(=O)[C@H](CCC(N)=O)NC(=O)[C@H](CO)NC(=O)[C@@H]1CCCN1C(=O)[C@@H](NC(=O)[C@@H](NC(=O)[C@@H](NC(=O)[C@H](CCC(=O)O)NC(=O)[C@H](CCC(=O)O)NC(=O)CNC(=O)[C@H](Cc1ccccc1)NC(=O)[C@H](CCCNC(=N)N)NC(=O)[C@H](Cc1ccccc1)NC(=O)[C@H](CO)NC(=O)[C@H](CCC(=O)O)NC(=O)[C@H](C)NC(=O)[C@@H]1CCCN1C(=O)[C@@H]1CCCN1C(=O)[C@H](C)NC(=O)[C@@H](NC(=O)[C@@H]1CCCN1C(=O)[C@H](C)NC(=O)[C@@H]1CCCN1C(=O)[C@@H]1CCCN1C(=O)[C@H](C)NC(=O)[C@@H](NC(=O)[C@@H]1CCCN1C(=O)[C@H](CCC(=O)O)NC(=O)[C@@H]1CCCN1C(=O)[C@H](CCCNC(=N)N)NC(=O)[C@H](CO)NC(=O)[C@H](CCC(N)=O)NC(=O)[C@@H](N)CC(C)C)[C@@H](C)O)[C@@H](C)O)[C@@H](C)O)[C@@H](C)O)[C@@H](C)O)C(=O)N[C@@H](CC(=O)O)C(=O)N[C@@H](CCCCN)C(=O)N[C@@H](CCC(=O)O)C(=O)N[C@@H](CC(C)C)C(=O)N[C@@H](Cc1ccc(O)cc1)C(=O)N1CCC[C@H]1C(=O)N[C@@H](CC(C)C)C(=O)N[C@@H](C)C(=O)N[C@@H](CO)C(=O)N[C@@H](CC(C)C)C(=O)N[C@@H](CCCNC(=N)N)C(=O)N[C@@H](CO)C(=O)N[C@@H](CC(C)C)C(=O)N[C@@H](Cc1ccccc1)C(=O)NCC(=O)N[C@@H](CO)C(=O)N[C@@H](CC(=O)O)C(=O)N1CCC[C@H]1C(=O)N[C@@H](CO)C(=O)N[C@@H](CO)C(=O)N[C@@H](CCC(N)=O)C(=O)O [2x]	–	–	–	–	up to 30 min
